Assay [1] has as its target T1, FP receptor (Mus musculus, UniProt P43117).
T1 construct: WT mice were post-treated orally with 10 μg/kg (n=10) or 100 μg/kg (n=8) latanoprost 30 min after reperfusion; endogenous in cells; host or cells: wild-type mice, whole animal (in vivo); FP-/- mice used as receptor-null control
Put plainly: Brain infarction (TTC staining) after transient ischemia (90-min MCAO), post-treatment with FP agonist. The assay is classed as in vivo. As to conditions: WT mice, TTC at 96 h. As for the experimental part: Transient ischemia protocol. WT (n=11) and FP^−/− (n=12) mice were subjected to MCAO for 90 min followed by 96 h of reperfusion (Ahmad et al., 2006a). Mice were placed under halothane anesthesia (3.0% for induction, 1.0% for maintenance) and ventilated with oxygen-enriched air via a nose cone. Body temperatures were maintained at 37.0±0.5° C. by a heating pad. The mice were subjected to the intraluminal filament technique to produce the MCAO model of transient focal cerebral ischemia as we have described previously (Ahmad et al., 2006a). Relative cerebral blood flow (CBF) was measured by laser-Doppler flowmetry (Moor instruments, Devon, England) with a flexible probe affixed to the skull over the parietal cortex supplied by the MCA (2 mm posterior and 6 mm lateral to bregma). […] During occlusion, mice were kept in a humidity-controlled, 32° C. chamber to help maintain a body core temperature of 37° C. […]
(§1) Post-treatment of mice with the FP agonist latanoprost. […] At 96 h after MCAO, neurological deficit scores and brain injury were measured. […]
Assessment of brain infarction. […] Infarct volume was assessed by 2,3,5-triphenyltetrazolium chloride (TTC) staining by an observer blinded to the treatments, as described previously (Ahmad et al., 2006a). […] The corrected volume of the infarcted hemisphere was calculated as: volume of contralateral hemisphere−(volume of ipsilateral hemisphere−volume of infarct).

The test system of assay [2] is FP receptor. In words: Neurological deficit score after transient ischemia (90-min MCAO), post-treatment with FP agonist. The assay is classed as in vivo, mouse. As to conditions: FP−/− mice, 100 μg/kg orally 30 min after reperfusion, scored at 96 h, mean±S.E.M., p<0.05 vs latanoprost-treated WT. As for the experimental part:
(§2) Transient ischemia protocol. WT (n=11) and FP^−/− (n=12) mice were subjected to MCAO for 90 min followed by 96 h of reperfusion (Ahmad et al., 2006a). Mice were placed under halothane anesthesia (3.0% for induction, 1.0% for maintenance) and ventilated with oxygen-enriched air via a nose cone. Body temperatures were maintained at 37.0±0.5° C. by a heating pad. The mice were subjected to the intraluminal filament technique to produce the MCAO model of transient focal cerebral ischemia as we have described previously (Ahmad et al., 2006a). Relative cerebral blood flow (CBF) was measured by laser-Doppler flowmetry (Moor instruments, Devon, England) with a flexible probe affixed to the skull over the parietal cortex supplied by the MCA (2 mm posterior and 6 mm lateral to bregma). […] During occlusion, mice were kept in a humidity-controlled, 32° C. chamber to help maintain a body core temperature of 37° C. After 90 min of occlusion, mice were briefly re-anesthetized, the midline was reopened, and the filament was removed to establish reperfusion. After the incision was sutured, mice were again placed in the humidity- and temperature-controlled chamber for another 6 h and finally returned to their respective cages for survival up to 96 h.
(§3) Assessment of neurological deficit score. Neurological function was measured in each mouse at 96 h after reperfusion according to the following graded scoring system, as described previously (Li et al., 2004): 0=no deficit; 1=forelimb weakness and torso turning to the ipsilateral side when held by tail; 2=circling to affected side; 3=unable to bear weight on affected side; and 4=no spontaneous locomotor activity or barrel rolling.
as §1

Assay [3] addresses T1, FP receptor. Described as above. The assay is classed as in vivo. As to conditions: WT mice. As for the experimental part:
as §2, §3, §1

Entries after “also recorded” stand apart in the source; their conditions may differ.

T1 sequence (P43117 whole entry, the tested form may be a part): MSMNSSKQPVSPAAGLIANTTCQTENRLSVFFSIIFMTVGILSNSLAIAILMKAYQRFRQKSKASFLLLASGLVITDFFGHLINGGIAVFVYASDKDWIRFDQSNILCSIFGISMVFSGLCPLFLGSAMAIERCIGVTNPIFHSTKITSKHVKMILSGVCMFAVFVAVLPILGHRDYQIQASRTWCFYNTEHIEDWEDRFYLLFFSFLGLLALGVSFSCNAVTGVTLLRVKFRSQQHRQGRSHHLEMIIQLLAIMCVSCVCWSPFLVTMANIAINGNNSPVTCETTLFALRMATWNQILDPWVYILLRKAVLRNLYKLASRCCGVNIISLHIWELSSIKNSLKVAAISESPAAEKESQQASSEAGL

For `CC(C)OC(=O)CCC/C=C\C[C@@H]1[C@@H](CC[C@@H](O)CCc2ccccc2)[C@H](O)C[C@@H]1O` [latanoprost, 13,14-dihydro-17-phenyl-18,19,20-trinor-PGF2α isopropyl ester], the “brain damage (corrected infarct volume)” value is “trend toward increased brain damage” on FP receptor [1] (10 μg/kg orally 30 min after reperfusion, vs vehicle) and “significantly larger infarct volumes; also recorded: became significant” at FP receptor [1] (100 μg/kg orally 30 min after reperfusion, p<0.05 vs vehicle). Moreover, the neurological deficit score in the assay with FP receptor [2] is reported as 1.4±0.2; on FP receptor [3] (10 μg/kg orally 30 min after reperfusion, scored at 96 h (scale 0-4), mean±S.E.M., vehicle 1.8±0.2, not significant), 2.2±0.2; on FP receptor [3] (100 μg/kg orally 30 min after reperfusion, scored at 96 h, p<0.05 vs vehicle) it was “significantly increased the neurological deficit”.

For the origin of these results see patent US20100229250A1, “TREATMENT AND PREVENTION OF ISCHEMIC BRAIN INJURY” (THE JOHNS HOPKINS UNIVERSITY, priority 2007, published 2010).
